Results as given in US20090318494A1, “PYRAZOLO[3,4-B]PYRIDINE COMPOUNDS, AND THEIR USE AS PDE4 INHIBITORS” (Glaxo Group Limited, priority 2006, published 2009).
Counter-ions that a name gives are not always drawn.

Legend:
[1] = test system: atopic dermatitis patients; details: cited from earlier work
[2] = target: T1, PDE4B (human recombinant) (Homo sapiens, UniProt Q07343); experiment: Inhibition of PDE4B activity: IMAP Fluorescence Polarisation (FP) assay; assay type: biochemical; details: FP assay or generally similar assay; each limit ±about 0.5; n=1 or average of 2 or more readings; read-out: PDE4B inhibitory activities, pIC50 (converted)
T1 construct: made in house; host or cells: Saccharomyces cerevisiae strain GL62 (named as a possible source, as described in WO 94/20079)
Text: The ability of compounds to inhibit catalytic activity at PDE4B (human recombinant) or PDE4D (human recombinant) can optionally be determined by IMAP Fluorescence Polarisation (FP) assay (IMAP Explorer kit, available from Molecular Devices Corporation, Sunnydale, Calif., USA; Molecular Devices code: R8062) in 384-well format.
The IMAP FP assay is able to measure PDE activity in an homogenous, non-radioactive assay format. The FP assay uses the ability of immobilised trivalent metal cations, coated onto nanoparticles (tiny beads), to bind the phosphate group of Fl-AMP that is produced on the hydrolysis of fluorescein-labelled (Fl) cyclic adenosine mono-phosphate (Fl-cAMP) to the non-cyclic Fl-AMP form. […] Binding of Fl-AMP product to the beads (coated with the immobilised trivalent cations) slows the rotation of the bound Fl-AMP and leads to an increase in the fluorescence polarisation ratio of parallel to perpendicular light. Inhibition of the PDE reduces/inhibits this signal increase.
Test compounds (small volume, e.g. ca. 0.5 to 1 microlitres (ul), suitably ca. 0.5 ul, of solution in DMSO) are preincubated at ambient temperature (room temperature, e.g. 19-23° C.) in black 384-well microtitre plates (supplier: NUNC, code 262260) with PDE enzyme in 10 mM Tris-HCl buffer pH 7.2, 10 mM MgCl2, 0.1% (w/v) bovine serum albumin, and 0.05% NaN3 for 10-30 minutes. The enzyme level is set by experimentation so that reaction is linear throughout the incubation. Fluorescein adenosine 3′,5′-cyclic phosphate (from Molecular Devices Corporation, Molecular Devices code: R7091) is added to give about 40 nM final concentration (final assay volume usually ca. 20-40 ul, suitably ca. 20 ul). Plates are mixed on an orbital shaker for 10 seconds and incubated at ambient temperature for 40 minutes. IMAP binding reagent (as described above, from Molecular Devices Corporation, Molecular Devices code: R7207) is added (60 ul of a 1 in 400 dilution in binding buffer of the kit stock solution) to terminate the assay. Plates are allowed to stand at ambient temperature for 1 hour. The Fluorescence Polarisation (FP) ratio of parallel to perpendicular light is measured using an Analyst™ plate reader (from Molecular Devices Corporation). For inhibition curves, 10 concentrations (e.g. 1.5 nM-30 uM) of each compound are assayed. Curves are analysed using ActivityBase and XLfit (ID Business Solutions Limited, 2 Ocean Court, Surrey Research Park, Guildford, Surrey GU2 7QB, United Kingdom). Results are expressed as pIC50 values.
In the FP assay, reagents can be dispensed using Multidrop™ (available from Thermo Labsystems Oy, Ratastie 2, PO Box 100, Vantaa 01620, Finland).

COPD patients = details: cited from earlier work

T1 sequence (Q07343 1-564 isoform Q07343-2): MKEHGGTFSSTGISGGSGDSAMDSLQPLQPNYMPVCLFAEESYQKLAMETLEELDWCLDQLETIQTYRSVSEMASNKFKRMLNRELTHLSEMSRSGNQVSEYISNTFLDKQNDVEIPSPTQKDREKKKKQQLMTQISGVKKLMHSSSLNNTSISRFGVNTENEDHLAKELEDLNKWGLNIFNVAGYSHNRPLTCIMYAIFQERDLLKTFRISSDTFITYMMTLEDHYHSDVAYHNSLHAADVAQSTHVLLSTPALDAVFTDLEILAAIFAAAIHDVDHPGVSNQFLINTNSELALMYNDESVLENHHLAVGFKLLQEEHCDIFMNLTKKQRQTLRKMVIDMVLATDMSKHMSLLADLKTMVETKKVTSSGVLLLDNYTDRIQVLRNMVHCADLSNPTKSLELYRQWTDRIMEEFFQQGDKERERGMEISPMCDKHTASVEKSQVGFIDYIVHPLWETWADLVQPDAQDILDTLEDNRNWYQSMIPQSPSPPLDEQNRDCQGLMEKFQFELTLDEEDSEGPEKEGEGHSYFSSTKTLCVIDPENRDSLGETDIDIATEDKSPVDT

## COc1ccc(C2CNC(=O)NC2)cc1O[C@H]1C[C@@H]2CC[C@H]1C2 [CP80,633]
[1]; 0.5% ointment, twice daily topical application
  inflammatory parameters in atopic dermatitis patients: reductions of inflammatory parameters

## CCc1nc2c(cnn2CC)c(NC2CCN(C(N)=O)CC2)c1CNC(=O)CCCCCCCN1CCC[C@@H]1COC [Example 7, 4-[(1,6-diethyl-5-{[(8-{(2R)-2-[(methyloxy)methyl]-1-pyrrolidinyl}octanoyl)amino]methyl}-1H-pyrazolo[3,4-b]pyridin-4-yl)amino]-1-piperidinecarboxamide trifluoroacetate]
[2]
  IC50: 0.2 to 1.58 nM

## CCc1nc2c(cnn2CC)c(NC2CCN(C(N)=O)CC2)c1CNC(=O)CCCCCCCN1CCC[C@H]1COC [Example 8, 4-[(1,6-diethyl-5-{[(8-{(2S)-2-[(methyloxy)methyl]-1-pyrrolidinyl}octanoyl)amino]methyl}-1H-pyrazolo[3,4-b]pyridin-4-yl)amino]-1-piperidinecarboxamide trifluoroacetate]
[2]
  IC50: 0.2 to 1.58 nM

## CCc1nc2c(cnn2CC)c(NC2CCOCC2)c1CNC(=O)CCCCCCCN1CCC[C@@H]1COC [Example 15, N-{[1,6-diethyl-4-(tetrahydro-2H-pyran-4-ylamino)-1H-pyrazolo[3,4-b]pyridin-5-yl]methyl}-8-{(2R)-2-[(methyloxy)methyl]-1-pyrrolidinyl}octanamide trifluoroacetate]
[2]
  IC50: 0.2 to 1.58 nM

## CCc1nc2c(cnn2CC)c(NC2CCOCC2)c1CNC(=O)CCCCCCCN1CCC[C@H]1COC [Example 16, N-{[1,6-diethyl-4-(tetrahydro-2H-pyran-4-ylamino)-1H-pyrazolo[3,4-b]pyridin-5-yl]methyl}-8-{(2S)-2-[(methyloxy)methyl]-1-pyrrolidinyl}octanamide trifluoroacetate]
[2]
  IC50: 0.2 to 1.58 nM

## COc1ccc([C@]2(C#N)CC[C@@H](C(=O)O)CC2)cc1OC1CCCC1 [cilomilast]
COPD patients; 15 mg orally twice daily
  forced expiratory volume in 1s (FEV1): appears to improve forced expiratory volume in 1s (FEV1)
COPD patients
  antiinflammatory effects in COPD patients: appears to have antiinflammatory effects

## Nc1nc2c([nH]1)c(=O)n(CC1CC1)c(=O)n2CC1CC1 [cipamfylline]
[1]; 0.15% cream
  efficacy in the treatment of atopic dermatitis patients versus hydrocortisone 17-butyrate (0.1%) cream: significantly less effective than hydrocortisone 17-butyrate (0.1%) cream
  efficacy in the treatment of atopic dermatitis patients versus vehicle: significantly more effective than vehicle

## O=C(Nc1c(Cl)cncc1Cl)c1ccc(OC(F)F)c(OCC2CC2)c1 [roflumilast]
COPD patients
  FEV1 in COPD patients: appears to show small improvements in FEV1
